Measurements taken from patent publication US20210395327A1, “Growth Hormone-Releasing Hormone Antagonists and Uses Thereof” (United States Government As Represented By The Department …, priority 2019, published 2021).
Non-standard residues stand in square brackets, D forms with d. Residues, ends and D or L forms follow the SMILES beside them. *: point of attachment. Phenylacetyl(2,3,4,5,6-F5) = O=C(Cc1c(F)c(F)c(F)c(F)c1F)*; Phe(F5) = N[C@@H](Cc1c(F)c(F)c(F)c(F)c1F)C(=O)O; Phe(4-Cl) = N[C@@H](Cc1ccc(Cl)cc1)C(=O)O; hArg = N=C(N)NCCCC[C@H](N)C(=O)O; 12Ado = NCCCCCCCCCCCC(=O)O; Nle = CCCC[C@H](N)C(=O)O; Abu = CC[C@H](N)C(=O)O

Columns and labels:
Type in all cases: in vivo
[1] = tested on: lung cancer H460 xenograft; assay: Xenograft tumor growth in nude mice, H460; conditions: Table 4H, Lung Ca H460, 4 weeks, 5 μg/day s.c.; for % Inhibition: vs control
Procedure: (§1) The peptides' activity was compared with GHRH antagonist MIA-602. All statistical analyzses were performed from comparing GHRA antagonists to non-treated tumor (control).
(§2) Peptides and chemicals. GHRH antagonists MIA-602 and AVR-GHRH antagonists (see Table 2 above) were synthesized by solid phase methods and purified by HPLC. The peptides were dissolved in DMSO and further diluted in 10% 1,2-propanediol. The final concentration of peptides was 50 µg/ml in 10% 1,2-propanediol containing 0.1% of DMSO.
(§3) Cell culture. Human cancer cell lines including pancreatic (PANC-1 and CFPAC-1), lung (HCC827 and H460), stomach (NCI-N87), prostate (PC3), brest (MX-1 and HCC-1806), colorectal (HT-29), and ovarian (SK-OV-3 and OVCAR-3) were obtained from the American Type Culture Collection (ATCC) and cultured at 37° C. in a humidified 95% air/5% CO2 atmosphere in the medium recommended by ATCC.
(§4) Xenograft models of human cancers in nude mice. Female athymic (NCr nu/nu) nude mice, 5- to 6-weeks-old, obtained from the Envigo labs (Tampa, Fla.), were housed in laminar airflow cabinets under pathogen-free conditions with a 12-h light/12-h dark schedule, and were fed autoclaved standard chow and water. To generate mice with xenografted tumors, tumor xenografts were initiated by subcutaneous (s.c.) injection of 107 human cancer cells into female nude mice. After about 4 weeks the resulting tumors were dissected and collected after removing necrosis tissues. The tumors were then cut into particles with size of 3 mm3 and transplanted s.c. by trocar needle into experimental animals. When tumors grew to the size of 50-60 mm3 (by volume), mice were randomized into groups and treated daily for 4-8 weeks by subcutaneous administration of 5 μg of GHRH antagonists MIA-602 or AVR-compounds (2-10 μg as indicated), or vehicle solutions (0.1% DMSO in 10% 1,2-propanediol) respectively. Tumor sizes were measured weekly.
(§5) Statistical analysis. One-way ANOVA followed by Bonferroni comparison were performed. Data are expressed as Mean±SEM. To determine statistical significance between animal groups, two-tailed Student's t-test was conducted. Differences were considered significant when p<0.05.
(§6) Results. […] FIG. 1A-N represents in vivo inhibition of tumor growth during the treatment with GHRH antagonist MIA-602 and selected AVR antagonists in nude mice xenografted with various human tumors including pancreatic cancer PANC-1 (FIG. 1A) and CFPAC-1 (FIG. 1I); lung cancer HCC827 (FIGS. 1B, C) and H460 (FIG. 1H); stomach cancer N87 (FIGS. 1D-F); colon cancer HT-29 (FIG. 1G); breast cancer MX-1 and HCC-1806 (FIGS. 1J, K); ovarian cancer SK-OV-3 and OVACAR-3 (FIGS. 1 L, M) and prostate cancer PC3 (FIG. 1N). See also Table 5.

[2] = tested on: colon cancer HT-29 xenograft; assay: Xenograft tumor growth in nude mice, HT-29; conditions: Table 4G, Colon Ca HT-29, 6 weeks; for % Inhibition: vs control
Procedure: as §1, §2, §3, §4, §5, §6

[3] = tested on: ovarian cancer SK-OV-3 xenograft; assay: Xenograft tumor growth in nude mice, SK-OV-3; conditions: Table 4L, Ovarian Ca SK-OV-3, 7 weeks; for % Inhibition: vs control
Procedure: as §1, §2, §3, §4, §5, §6

## CCCC[C@H](NC(=O)[C@@H](NC(=O)[C@H](CC(=O)O)NC(=O)[C@H](CCC(N)=O)NC(=O)[C@H](CC(C)C)NC(=O)[C@H](CC(C)C)NC(=O)[C@H](CCCCN)NC(=O)[C@H](CCCNC(=N)N)NC(=O)[C@H](C)NC(=O)[C@H](CO)NC(=O)[C@H](CC(C)C)NC(=O)[C@H](CCC(N)=O)NC(=O)[C@H](CC)NC(=O)[C@H](CC(C)C)NC(=O)[C@@H](NC(=O)[C@H](CCCCN)NC(=O)[C@H](CCCNC(=N)N)NC(=O)[C@H](Cc1c(F)c(F)c(F)c(F)c1F)NC(=O)[C@H](CCCCNC(=N)N)NC(=O)[C@H](C)NC(=O)[C@@H](NC(=O)[C@H](Cc1ccc(Cl)cc1)NC(=O)[C@@H](NC(=O)[C@H](C)NC(=O)[C@H](CC(=O)O)NC(=O)[C@@H](CCCNC(=N)N)NC(=O)[C@H](Cc1ccc(O)cc1)NC(=O)CCCCCCCCCCCNC(=O)Cc1c(F)c(F)c(F)c(F)c1F)[C@@H](C)CC)[C@@H](C)O)C(C)C)[C@@H](C)CC)C(=O)N[C@H](CCCNC(=N)N)C(=O)N[C@@H](CCCCNC(=N)N)C(=O)NCCCCCCCCCCCC(N)=O [AVR-353, 5FPhAC-Ada-Tyr-DArg-Asp-Ala-Ile-Cpa-Thr-Ala-Har-5FPhe-Arg-Lys-Val-Leu-Abu-Gln-Leu-Ser-Ala-Arg-Lys-Leu-Leu-Gln-Asp-Ile-Nle-DArg-Har-Ada-NH2] ({Phenylacetyl(2,3,4,5,6-F5)-12Ado}-Y[dR]DAI[Phe(4-Cl)]TA[hArg][Phe(F5)]RKVL[Abu]QLSARKLLQDI[Nle][dR][hArg][12Ado]-NH2)
[1]
  Tumor Growth %: 1335.0%
  % Inhibition: 60.5%
[2]; 2 μg/day s.c.
  Tumor Size (mm^3): 549.30 mm^3
  % Inhibition: 24.2%
[2]; 5 μg/day s.c.
  Tumor Size (mm^3): 494.70 mm^3
  % Inhibition: 31.8%
[3]; 2.5 μg/day s.c.
  Tumor Size (mm3): 1056.0 mm3
  % Inhibition: 19.1%
[3]; 5 μg/day s.c.
  Tumor Size (mm3): 910.7 mm3
  % Inhibition: 30.9%

## CCCC[C@H](NC(=O)[C@@H](NC(=O)[C@H](CC(=O)O)NC(=O)[C@H](CCC(N)=O)NC(=O)[C@H](CC(C)C)NC(=O)[C@H](CC(C)C)NC(=O)[C@H](CCCCN)NC(=O)[C@H](CCCNC(=N)N)NC(=O)[C@H](C)NC(=O)[C@H](CO)NC(=O)[C@H](CC(C)C)NC(=O)[C@H](CCC(N)=O)NC(=O)[C@H](CC)NC(=O)[C@H](CC(C)C)NC(=O)[C@@H](NC(=O)[C@H](CCCCN)NC(=O)[C@H](CCCNC(=N)N)NC(=O)[C@H](Cc1ccc(OC)cc1)NC(=O)[C@H](CCCCNC(=N)N)NC(=O)[C@H](C)NC(=O)[C@@H](NC(=O)[C@H](Cc1c(F)c(F)c(F)c(F)c1F)NC(=O)[C@@H](NC(=O)[C@H](C)NC(=O)[C@H](CC(=O)O)NC(=O)[C@@H](CCCNC(=N)N)NC(=O)[C@H](Cc1ccc(O)cc1)NC(=O)CCCCCCCCCCCNC(=O)Cc1c(F)c(F)c(F)c(F)c1F)[C@@H](C)CC)[C@@H](C)O)C(C)C)[C@@H](C)CC)C(=O)N[C@H](CCCNC(=N)N)C(=O)N[C@@H](CCCCNC(=N)N)C(=O)NCCCCCCCCCCCC(N)=O [AVR-352, 5FPhAC-Ada-Tyr-DArg-Asp-Ala-Ile-5FPhe-Thr-Ala-Har-Tyr(Me)-Arg-Lys-Val-Leu-Abu-Gln-Leu-Ser-Ala-Arg-Lys-Leu-Leu-Gln-Asp-Ile-Nle-DArg-Har-Ada-NH2] ({Phenylacetyl(2,3,4,5,6-F5)-12Ado}-Y[dR]DAI[Phe(F5)]TA[hArg]Y(Me)RKVL[Abu]QLSARKLLQDI[Nle][dR][hArg][12Ado]-NH2)
[1]
  Tumor Growth %: 1738.3%
  % Inhibition: 48.6%
[3]; 2.5 μg/day s.c.
  Tumor Size (mm3): 718.4 mm3
  % Inhibition: 45.0%
[3]; 5 μg/day s.c.
  Tumor Size (mm3): 422.3 mm3
  % Inhibition: 67.7%

## CCCC[C@H](NC(=O)[C@@H](NC(=O)[C@H](CC(=O)O)NC(=O)[C@H](CCC(N)=O)NC(=O)[C@H](CC(C)C)NC(=O)[C@H](CC(C)C)NC(=O)[C@H](CCCCN)NC(=O)[C@H](CCCNC(=N)N)NC(=O)[C@H](C)NC(=O)[C@H](CO)NC(=O)[C@H](CC(C)C)NC(=O)[C@H](CCC(N)=O)NC(=O)[C@H](CC)NC(=O)[C@H](CC(C)C)NC(=O)[C@@H](NC(=O)[C@H](CCCCN)NC(=O)[C@H](CCCNC(=N)N)NC(=O)[C@H](Cc1c(F)c(F)c(F)c(F)c1F)NC(=O)[C@H](CCCCNC(=N)N)NC(=O)[C@H](C)NC(=O)[C@@H](NC(=O)[C@H](Cc1ccc(Cl)cc1)NC(=O)[C@@H](NC(=O)[C@H](C)NC(=O)[C@H](CC(=O)O)NC(=O)[C@@H](CCCNC(=N)N)NC(=O)[C@H](Cc1ccc(O)cc1)NC(=O)CCCCCCCCCCCNC(=O)Cc1c(F)c(F)c(F)c(F)c1F)[C@@H](C)CC)[C@@H](C)O)C(C)C)[C@@H](C)CC)C(=O)N[C@H](CCCNC(=N)N)C(=O)N[C@@H](CCCCNC(=N)N)C(=O)NCCCCCCCCCCCC(=O)NC [AVR-354] ({Phenylacetyl(2,3,4,5,6-F5)-12Ado}-Y[dR]DAI[Phe(4-Cl)]TA[hArg][Phe(F5)]RKVL[Abu]QLSARKLLQDI[Nle][dR][hArg][12Ado]-NHMe)
[2]; 5 μg/day s.c.
  Tumor Size (mm^3): 417.90 mm^3
  % Inhibition: 42.3%
